From ChEMBL document CHEMBL1149865, “Pyridinium alkaloid-coupled secoiridoids from the flower buds of Lonicera japonica” (2008)

Assay: Antiinflammatory activity in rat polymorphonuclear leukocytes assessed as inhibition of platelet activating factor-induced release of glucuronidase at 10 uM after 15 mins
Assay type: functional
Conditions: 0.25 h

| SMILES | inhibition at 10 µM [%] |
| --- | --- |
| C=C[C@H]1[C@H](O[C@@H]2O[C@H](CO)[C@@H](O)[C@H](O)[C@H]2O)OC=C(C(=O)OC)[C@H]1/C=C/c1cc(C(=O)[O-])c[n+](CCCC(=O)O)c1 [LONIJAPOSIDE A] | 11 |
| C=C[C@H]1[C@H](O[C@@H]2O[C@H](CO)[C@@H](O)[C@H](O)[C@H]2O)OC=C(C(=O)OC)[C@H]1/C=C/c1cc(C(=O)[O-])c[n+](CCO)c1 [LONIJAPOSIDE B] | 35.8 |
| C=C[C@H]1[C@H](O[C@@H]2O[C@H](CO)[C@@H](O)[C@H](O)[C@H]2O)OC=C(C(=O)O)[C@H]1/C=C/c1cc(C(=O)[O-])c[n+](CCO)c1 [LONIJAPOSIDE C] | 69.5 |
